Source: PubChem BioAssay (NCI)
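GI50 = concentration required for 50% inhibition of growth. At the TGI there is no net growth.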

Key:
Test in all cases: NCI tumour cell line growth inhibition, 384-well format
[1] = tested on: 786-0 renal
[2] = tested on: A498 renal
[3] = tested on: A549 NSCLC
[4] = tested on: ACHN renal
[5] = tested on: BT-549 breast
[6] = tested on: CAKI-1 renal
[7] = tested on: CCRF-CEM leukemia
[8] = tested on: COLO 205 colon
[9] = tested on: DU-145 prostate
[10] = tested on: EKVX NSCLC
[11] = tested on: HCC-2998 colon
[12] = tested on: HCT-15 colon
[13] = tested on: HL-60(TB) leukemia
[14] = tested on: HOP-62 NSCLC
[15] = tested on: HOP-92 NSCLC
[16] = tested on: HS 578T breast
[17] = tested on: HT29 colon
[18] = tested on: IGROV1 ovarian
[19] = tested on: K-562 leukemia
[20] = tested on: KM12 colon
[21] = tested on: LOX IMVI melanoma
[22] = tested on: M14 melanoma
[23] = tested on: MALME-3M melanoma
[24] = tested on: MCF7 breast
[25] = tested on: MDA-MB-231 breast
[26] = tested on: MDA-MB-435 melanoma
[27] = tested on: MDA-MB-468 breast
[28] = tested on: MOLT-4 leukemia
[29] = tested on: NCI-H226 lung
[30] = tested on: NCI-H23 lung
[31] = tested on: NCI-H322M lung
[32] = tested on: NCI-H460 NSCLC
[33] = tested on: NCI-H522 lung
[34] = tested on: NCI/ADR-RES ovarian
[35] = tested on: OVCAR-3 ovarian
[36] = tested on: OVCAR-4 ovarian
[37] = tested on: OVCAR-5 ovarian
[38] = tested on: OVCAR-8 ovarian
[39] = tested on: PC-3 prostate
[40] = tested on: RPMI-8226 leukemia
[41] = tested on: RXF 393 renal
[42] = tested on: SF-268 CNS
[43] = tested on: SF-295 CNS
[44] = tested on: SF-539 CNS
[45] = tested on: SK-MEL-28 melanoma
[46] = tested on: SK-MEL-5 melanoma
[47] = tested on: SK-OV-3 ovarian
[48] = tested on: SN12C renal
[49] = tested on: SNB-19 CNS
[50] = tested on: SNB-75 CNS
[51] = tested on: SR leukemia
[52] = tested on: SW-620 colon
[53] = tested on: T-47D breast
[54] = tested on: TK-10 renal
[55] = tested on: U251 glioblastoma
[56] = tested on: UACC-257 melanoma
[57] = tested on: UACC-62 melanoma
[58] = tested on: UO-31 renal

CN(C)CCOc1ccc(-c2nc(-c3ccc4c(c3)CC/C4=N\O)c(-c3ccncc3)[nH]2)cc1
GI50 [1]: 1790 nM | TGI [1]: 3.2 µM | GI50 [2]: 1880 nM | TGI [2]: 3.31 µM | GI50 [3]: 1990 nM | TGI [3]: 4.02 µM | GI50 [4]: 2140 nM | TGI [4]: 4.32 µM | GI50 [5]: 1960 nM | TGI [5]: 3.39 µM | GI50 [6]: 1980 nM | TGI [6]: 3.43 µM | GI50 [7]: 1880 nM | TGI [7]: 3.29 µM | GI50 [8]: 20.3 nM | TGI [8]: 1130 nM | GI50 [9]: 3.09 µM | TGI [9]: 9.61 µM | GI50 [10]: 1890 nM | TGI [10]: 3.43 µM | GI50 [11]: 1690 nM | TGI [11]: 3.08 µM | GI50 [12]: 2450 nM | TGI [12]: 6.46 µM | GI50 [13]: 941 nM | TGI [13]: 2090 nM | GI50 [14]: 1850 nM | TGI [14]: 3.26 µM | GI50 [15]: 1740 nM | TGI [15]: 3.12 µM | GI50 [16]: 1880 nM | TGI [16]: 3.29 µM | GI50 [17]: 555 nM | TGI [17]: 2060 nM | GI50 [18]: 13.1 µM | TGI [18]: 25.9 µM | GI50 [19]: 1970 nM | TGI [19]: 3.43 µM | GI50 [20]: 1900 nM | TGI [20]: 3.33 µM | GI50 [21]: 963 nM | TGI [21]: 2160 nM | GI50 [22]: 33.4 nM | TGI [22]: 839 nM | GI50 [23]: 10.6 nM | TGI [23]: 34.2 nM | GI50 [24]: 1460 nM | TGI [24]: 2810 nM | GI50 [25]: 1150 nM | TGI [25]: 2370 nM | GI50 [26]: 58.9 nM | TGI [26]: 1600 nM | GI50 [27]: 2140 nM | TGI [27]: 3.58 µM | GI50 [28]: 2150 nM | TGI [28]: 3.6 µM | GI50 [29]: 2320 nM | TGI [29]: 3.78 µM | GI50 [30]: 1380 nM | TGI [30]: 2860 nM | GI50 [31]: 1850 nM | TGI [31]: 3.51 µM | GI50 [32]: 1890 nM | TGI [32]: 3.38 µM | GI50 [33]: 1590 nM | TGI [33]: 2950 nM | GI50 [34]: 21.9 µM | TGI [34]: 58.3 µM | GI50 [35]: 2070 nM | TGI [35]: 3.52 µM | GI50 [36]: 2680 nM | TGI [36]: 4.17 µM | GI50 [37]: 1860 nM | TGI [37]: 3.32 µM | GI50 [38]: 1890 nM | TGI [38]: 3.32 µM | GI50 [39]: 1780 nM | TGI [39]: 3.27 µM | GI50 [40]: 1900 nM | TGI [40]: 3.36 µM | GI50 [41]: 1680 nM | TGI [41]: 3.05 µM | GI50 [42]: 1810 nM | TGI [42]: 3.22 µM | GI50 [43]: 7.01 µM | TGI [43]: 19.1 µM | GI50 [44]: 2140 nM | TGI [44]: 3.6 µM | GI50 [45]: 27.7 nM | TGI [45]: 198 nM | GI50 [46]: 130 nM | TGI [46]: 1570 nM | GI50 [47]: 1790 nM | TGI [47]: 3.19 µM | GI50 [48]: 14.2 µM | TGI [48]: 27.3 µM | GI50 [49]: 2070 nM | TGI [49]: 4.06 µM | GI50 [50]: 2070 nM | TGI [50]: 3.51 µM | GI50 [51]: 1710 nM | TGI [51]: 3.09 µM | GI50 [52]: 2360 nM | TGI [52]: 3.85 µM | GI50 [53]: 1880 nM | TGI [53]: 3.3 µM | GI50 [54]: 3.98 µM | TGI [54]: 13 µM | GI50 [55]: 2010 nM | TGI [55]: 3.48 µM | GI50 [56]: 25.7 nM | TGI [56]: 164 nM | GI50 [57]: 22.6 nM | TGI [57]: 285 nM | GI50 [58]: 15.8 µM | TGI [58]: 29.5 µM
